Assay [1] in a line: Cytotoxicity against human DU145 cells incubated for 72 hrs by alamar blue abased assay. The class given is functional. Particulars: DU-145, 72 h. (Alamar Blue is a resazurin reagent that responds to reducing activity.)
Assay [2] is described as follows: Cytotoxicity against human HCT116 cells incubated for 72 hrs by alamar blue abased assay. Type of assay: functional. Particulars: HCT-116, 72 h.
The nature of assay [3]: Cytotoxicity against human MDA-MB-231 cells incubated for 72 hrs by alamar blue abased assay. The class given is functional. Particulars: MDA-MB-231, 72 h.
Assay [4] is described as follows: Cytotoxicity against mouse L929 cells. The class given is functional, cell-based.
Assay [5] is described as follows: Cytotoxicity against human SW480 cells. The class given is functional, cell-based.
The nature of assay [6]: Cytotoxicity against human KB-3-1 cells. Type of assay: functional, cell-based.
A short description of assay [7]: Cytotoxicity against human T98 cells. The class given is functional, cell-based.

The record followed here is ChEMBL document CHEMBL3860102, “Structure-Cytotoxicity Relationships of Analogues of N14-Desacetoxytubulysin H” (J Med Chem, 2016).

Regarding `CC[C@H](C)[C@H](NC(=O)C1(C)CCCCN1C)C(=O)N(C)[C@H](C[C@@H](OC(C)=O)c1nc(C(=O)N[C@@H](Cc2ccccc2)C[C@H](C)C(=O)O)cs1)C(C)C` (some centres undefined), the GI50 in assay [1] turned out to be 1.2 nM.
Consider `CC[C@H](C)[C@H](NC(=O)[C@H]1CCCCN1C)C(=O)N(C)[C@H](C[C@@H](O)c1nc(C(=O)N[C@@H](Cc2ccccc2)C[C@H](C)C(=O)O)cs1)C(C)C`, for which the figures for the GI50 in assay [1], in assay [2] and in assay [3] were 363 nM, 110 nM and 169 nM, respectively.
Regarding `CC[C@H](C)[C@H](NC(=O)[C@H]1COCCN1)C(=O)N(C)[C@H](C[C@@H](OC(C)=O)c1nc(C(=O)N[C@@H](Cc2ccccc2)C[C@H](C)C(=O)O)cs1)C(C)C`, the GI50 in assay [1] is 2280 nM; in assay [2], 1380 nM; in assay [3] it was more than 3330 nM.
In the case of `CC[C@H](C)[C@H](NC(=O)[C@H]1CCCCN1C)C(=O)N(C)[C@H](C[C@@H](OC(C)=O)c1nc(C(=O)N[C@@H](Cc2ccccc2)C[C@H](C)C(=O)NN)cs1)C(C)C`, the GI50 in assay [1] is 6.63 nM; in assay [2], 6.09 nM; in assay [3] it was 5.24 nM.
For `CC[C@H](C)[C@H](NC(=O)[C@H]1CC2CCN1CC2)C(=O)N(C)[C@H](C[C@@H](OC(C)=O)c1nc(C(=O)N[C@@H](Cc2ccccc2)C[C@H](C)C(=O)O)cs1)C(C)C` the same measures were 428 nM, 214 nM and 196 nM.
As to `CC[C@H](C)[C@H](NC(=O)[C@H]1CSCN1C)C(=O)N(C)[C@H](C[C@@H](OC(C)=O)c1nc(C(=O)N[C@@H](Cc2ccccc2)C[C@H](C)C(=O)O)cs1)C(C)C`, the GI50 in assay [1] worked out at 1120 nM; in assay [2], 352 nM; in assay [3], 816 nM.
Turning to `CC[C@H](C)[C@H](NC(=O)[C@H]1CCCCN1C)C(=O)N(C)[C@H](C[C@@H](OC(C)=O)c1nc(C(=O)N[C@@H](Cc2ccccc2)C[C@H](C)C(=O)O)cs1)C(C)C`, the GI50 is 0.71 nM in assay [1], 0.62 nM in assay [2] and 1.14 nM in assay [3]. For the same compound, the IC50 in assay [4] amounted to 0.34 nM; in assay [5] it was 0.02 nM; in assay [6], 0.19 nM; in assay [7], 1.6 nM.
With `CC[C@H](C)[C@H](NC(=O)[C@H]1CCCCN1C)C(=O)N(C)[C@H](C[C@@H](OC(C)=O)c1nc(C(=O)N[C@H](CN)Cc2ccccc2)cs1)C(C)C`, the values for the GI50 in assay [1], in assay [2] and in assay [3] were 2.7 nM, 5.9 nM and 9 nM, respectively.
Taken in the same sequence, the figures for `CC[C@H](C)[C@H](NC(=O)[C@@H](C(C)C)N(C)CC)C(=O)N(C)[C@H](C[C@@H](OC(C)=O)c1nc(C(=O)N[C@@H](Cc2ccccc2)C[C@H](C)C(=O)O)cs1)C(C)C` were 2940 nM, 1640 nM and 3020 nM.
For `CC[C@H](C)[C@H](NC(=O)[C@H]1CSCCN1C)C(=O)N(C)[C@H](C[C@@H](OC(C)=O)c1nc(C(=O)N[C@@H](Cc2ccccc2)C[C@H](C)C(=O)O)cs1)C(C)C` the same measures were 166 nM, 69.3 nM and 226 nM.
For `CC[C@H](C)[C@H](NC(=O)[C@H]1C[C@@H](C)CN1C)C(=O)N(C)[C@H](C[C@@H](OC(C)=O)c1nc(C(=O)N[C@@H](Cc2ccccc2)C[C@H](C)C(=O)O)cs1)C(C)C` the same measures were 1.7 nM, 0.8 nM and 4.2 nM.
With `CC[C@H](C)[C@H](NC(=O)[C@@H]1CC(C)(C)CCN1C)C(=O)N(C)[C@H](C[C@@H](OC(C)=O)c1nc(C(=O)N[C@@H](Cc2ccccc2)C[C@H](C)C(=O)O)cs1)C(C)C`, the 50% growth inhibitory concentration (GI50) in assay [1] was found to be 50.6 nM; in assay [2], 88 nM; in assay [3], 118 nM.
With `CC[C@H](C)[C@H](NC(=O)[C@H]1CCCN1C)C(=O)N(C)[C@H](C[C@@H](OC(C)=O)c1nc(C(=O)N[C@@H](Cc2ccccc2)C[C@H](C)C(=O)O)cs1)C(C)C`, the GI50 in assay [1] is 1 nM; in assay [2], 0.6 nM; in assay [3] it was 3.3 nM.
For the compound `CC[C@H](C)[C@H](NC(=O)[C@@H](C(C)C)N(C)C)C(=O)N(C)[C@H](C[C@@H](OC(C)=O)c1nc(C(=O)N[C@@H](Cc2ccccc2)C[C@H](C)C(=O)O)cs1)C(C)C`, the figures for the GI50 in assay [1], in assay [2] and in assay [3] were 9.6 nM, 4.4 nM and 10.7 nM, respectively.
`CC[C@H](C)[C@H](NC(=O)[C@@H](c1ccccc1)N(C)C)C(=O)N(C)[C@H](C[C@@H](OC(C)=O)c1nc(C(=O)N[C@@H](Cc2ccccc2)C[C@H](C)C(=O)O)cs1)C(C)C`: the results for the GI50 in assay [1], in assay [2] and in assay [3] were 82.3 nM, 52.5 nM and 111 nM, respectively.
`CC[C@H](C)[C@H](NC(=O)[C@H]1CC(C)(C)CCN1C)C(=O)N(C)[C@H](C[C@@H](OC(C)=O)c1nc(C(=O)N[C@@H](Cc2ccccc2)C[C@H](C)C(=O)O)cs1)C(C)C`: the figures for the GI50 in assay [1], in assay [2] and in assay [3] were 1.3 nM, 1.8 nM and 3.9 nM, respectively.
Taken in the same sequence, the figures for `CC[C@H](C)[C@H](NC(=O)[C@H]1COCCN1C)C(=O)N(C)[C@H](C[C@@H](OC(C)=O)c1nc(C(=O)N[C@@H](Cc2ccccc2)C[C@H](C)C(=O)O)cs1)C(C)C` were 808 nM, 408 nM and 998 nM.
For `CC[C@H](C)[C@H](NC(=O)[C@@H](C)N(C)C)C(=O)N(C)[C@H](C[C@@H](OC(C)=O)c1nc(C(=O)N[C@@H](Cc2ccccc2)C[C@H](C)C(=O)O)cs1)C(C)C` the same measures were 4.5 nM, 2.5 nM and 3.9 nM.
For `CC[C@H](C)[C@H](NC(=O)[C@H]1CCSCN1C)C(=O)N(C)[C@H](C[C@@H](OC(C)=O)c1nc(C(=O)N[C@@H](Cc2ccccc2)C[C@H](C)C(=O)O)cs1)C(C)C`, the GI50 came out at 136 nM in assay [1], 64.2 nM in assay [2] and 125 nM in assay [3].
Take `CC[C@H](C)[C@H](NC(=O)[C@H]1C[C@H](C)CCN1C)C(=O)N(C)[C@H](C[C@@H](OC(C)=O)c1nc(C(=O)N[C@@H](Cc2ccccc2)C[C@H](C)C(=O)O)cs1)C(C)C`: the values for the GI50 in assay [1], in assay [2] and in assay [3] were 0.9 nM, 0.5 nM and 3.4 nM, respectively.
For the compound `CC[C@H](C)[C@H](NC(=O)[C@H]1CCc2ccccc2N1C)C(=O)N(C)[C@H](C[C@@H](OC(C)=O)c1nc(C(=O)N[C@@H](Cc2ccccc2)C[C@H](C)C(=O)O)cs1)C(C)C`, the GI50 in assay [1], in assay [2] and in assay [3] was more than 3330 nM each time.
As for `CC[C@H](C)[C@H](NC(=O)[C@@H](CC(C)C)N(C)C)C(=O)N(C)[C@H](C[C@@H](OC(C)=O)c1nc(C(=O)N[C@@H](Cc2ccccc2)C[C@H](C)C(=O)O)cs1)C(C)C`, the GI50 in assay [1] came to 17 nM; in assay [2], 8.2 nM; in assay [3] it was 19.1 nM.
`CC[C@H](C)[C@H](NC(=O)[C@H]1CCCCN1)C(=O)N(C)[C@H](C[C@@H](OC(C)=O)c1nc(C(=O)N[C@@H](Cc2ccccc2)C[C@H](C)C(=O)OC)cs1)C(C)C`: the values for the GI50 in assay [1], in assay [2] and in assay [3] were 11.5 nM, 3.68 nM and 9.39 nM, respectively.
Consider `CC[C@H](C)[C@H](NC(=O)[C@H]1CCCCN1CCN)C(=O)N(C)[C@H](C[C@@H](OC(C)=O)c1nc(C(=O)N[C@@H](Cc2ccccc2)C[C@H](C)C(=O)O)cs1)C(C)C`, for which the figures for the GI50 in assay [1], in assay [2] and in assay [3] were 176 nM, 174 nM and 243 nM, respectively.
As to `CC[C@H](C)[C@H](NC(=O)[C@H]1CCCCN1C)C(=O)N(C)[C@H](C[C@@H](OC(C)=O)c1nc(C(=O)N[C@@H](Cc2ccccc2)C[C@H](C)C(N)=O)cs1)C(C)C`, the GI50 in assay [1] amounted to 0.948 nM; in assay [2] it was 0.737 nM; in assay [3] it was 1.06 nM.
Regarding `CC[C@H](C)[C@H](NC(=O)[C@H]1CCCCN1C(C)=O)C(=O)N(C)[C@H](C[C@@H](OC(C)=O)c1nc(C(=O)N[C@@H](Cc2ccccc2)C[C@H](C)C(=O)O)cs1)C(C)C`, the GI50 is more than 3330 nM in assay [1], 798 nM in assay [2] and more than 3330 nM in assay [3].
With `CC[C@H](C)[C@H](NC(=O)[C@@H](Cc1ccccc1)N(C)C)C(=O)N(C)[C@H](C[C@@H](OC(C)=O)c1nc(C(=O)N[C@@H](Cc2ccccc2)C[C@H](C)C(=O)O)cs1)C(C)C`, the values for the GI50 in assay [1], in assay [2] and in assay [3] were 134 nM, 103 nM and 225 nM, respectively.
On to `CC[C@H](C)[C@H](NC(=O)[C@H]1CCCCN1)C(=O)N(C)[C@H](C[C@@H](OC(C)=O)c1nc(C(=O)N[C@@H](Cc2ccccc2)C[C@H](C)C(=O)O)cs1)C(C)C`, for which the GI50 in assay [1] amounted to 46.2 nM; in assay [2] it was 21.3 nM; in assay [3], 19.6 nM.
Consider `CCCN(C)[C@@H](C(=O)N[C@H](C(=O)N(C)[C@H](C[C@@H](OC(C)=O)c1nc(C(=O)N[C@@H](Cc2ccccc2)C[C@H](C)C(=O)O)cs1)C(C)C)[C@@H](C)CC)C(C)C`, for which the GI50 in assay [1], in assay [2] and in assay [3] was more than 3330 nM each time.

Broadly, the GI50 is the concentration that inhibits growth by half. A high value points to less potent growth inhibition. As a reminder, the IC50 is the concentration that inhibits the measured activity by half. A low value points to greater potency in that assay.
